Measurements from patent publication US4304833A, “Photographic products and processes employing triarylmethane compounds” (Polaroid Corporation, priority 1980, dated 1981).

Tests used:
Type in all cases: physicochemical
[1] = bleaching rate (T 1/2) at pH=12 in buffer, visible spectrometer; conditions: for Wavelength (λmax-nm): pH=12 buffer; for T 1/2 (pH = 12): pH=12 buffer (aqueous), at λmax given
Experimental: The "bleaching" rates for the compounds of Examples 21, 23, 24, 39 and 41 were determined at pH=12 in terms of T 1/2. By T 1/2 is meant the time measured for one-half of the colored compound to decolorize. In making these determinations, a cell containing about 3 ml of pH=12 buffer (aqueous) was placed in a visible spectrometer. A sample of each compound was dissolved in methanol, and a small amount (less than 0.1 cc) of each solution was injected into the buffer. The optical densities were then recorded at a selected wavelength value to determine T 1/2.

[2] = absorption measured in ethanol
Experimental: (c) To a stirred slurry of the phthalol acyl derivative obtained in step b (7.4 g; 0.0155 M), sodium bicarbonate (6.51 g; 0.078 M) and water (200 ml) was added dropwise, a solution of 4.44 g (0.018 M) iodine in 175 ml methylene chloride. After a total of 20 minutes of stirring at room temperature, the aqueous layer was separated and neutralized by adding it to one liter of water containing 15 ml concentrated hydrochloric acid. The aqueous fraction was extracted with methylene, chloride, the organic layer was dried over sodium sulfate and the solvent was removed in vacuo. The dark orange residue was purified via medium pressure column chromatography (silica gel) methanol-methylene chloride; methanol content varied from 0.5-2%). The title compound was isolated as an orange glass. (λmax 424 nm, Epsilon 22,500 as measured in ethanol)

[3] = decolorization of solution with aqueous 1N sodium hydroxide, then acidification; conditions: for color after decolorization with 1N NaOH and lowering to pH 1: methanol solution, aqueous hydrochloric acid to pH 1
Experimental: Also, samples of the compounds prepared in Examples 24, 26 and 39 above were dissolved in a small amount of methanol, and aqueous 1N sodium hydroxide was added to each solution to decolorize the compound.

[4] = bleaching of TLC spot treated with 1 N NaOH
Experimental: (c) β-(methylsulfonyl)ethylchloroformate (196 mg) in 8 ml of toluene was added dropwise over 20 minutes to a refluxing solution of 317.3 mg of the compound prepared in step (b) in 15 ml toluene. The yellow mixture was allowed to stir under reflux for an additional hour after addition was complete. The reaction mixture was a deep yellow. […] The yellow spot representing the title compound when treated with 1 N NaOH produced a magenta color which bleached in approximately 5 seconds. The solvent was removed from the remaining reaction mixture under vacuum to give a yellow solid. Preparative TLC with 150 mg of solid in 4 ml tetrahydrofuran using 10% methanol/chloroform gave a yellow band which was separated and washed with acetone to yield approximately 5 mg of the title compound.

[5] = transmission densities of image-receiving components before and after bleaching with aqueous 1 N KOH; conditions: for Transmission density After Bleaching B / Transmission density After Bleaching G / Transmission density After Bleaching R: 1 N KOH
Description: (§1) Using appropriate solvents, samples of the dye compounds prepared in Examples 12, 13, 24, 26 and 39 were incorporated into the image-receiving layer 3 of image-receiving components comprising the structure set forth below by mixing a solution of each compound with a solution of the graft copolymer and coating this mixture on top of the timing layer to complete each of the image-receiving components.
A transparent 4 mil polyethylene terephthalate film base coated with, in succession:
1. as a polymeric acid layer, a mixture of about 9 parts of a partial butyl ester of polyethylene/maleic anhydride copolymer and 1 part of polyvinyl butyral coated at a coverage of about 2,500 mgs./ft.^2 ;
2. a timing layer containing a 14:1 ratio of a 60-30-4-6 tetrapolymer of butylacrylate, diacetone acrylamide, styrene and methacrylic acid and polyvinyl alcohol at a coverage of 500 mgs./ft.^2 ;
3. a graft copolymer of 4-vinylpyridine and vinylbenzyltrimethylammoniumchloride grafted on hydroxyethyl cellulose in a weight ratio of 2.2/1/2.2, respectively, coated at a coverage of 300 mgs./ft.^2 to provide an image-receiving layer and containing the selected dye compound at a coverage of 22 mgs./ft.^2.
Each of the image-receiving components containing the respective dye compounds were placed on a piece of gelatin coated Mylar, and the transmission densities for red (R), green (G) and blue (B) were recorded on a transmission densitometer. Then several drops of aqueous 1 N KOH were added to each gelatin sheet, and the image-receiving components were lightly pressed against the gelatin sheets to "bleach" the dye compounds. […]

[6] = decolorization half-life of acetone solution in pH=12 buffer
Experimental: A sample of an acetone solution of the purified dye compound was added to fresh pH=12 buffer and the first half-life (T 1/2) and the second half-life (T 1/2) were measured giving the following results wherein OD refers to optical density. By T 1/2 is meant the time measured for one-half of said colored compound to decolorize.
The λmax of the pure title compound was 560 nm as measured in acetone--pH 12 buffer, and the T 1/2 values were measured at this wavelength.

[7] = bleaching of dye in image-receiving layer film with aqueous 1 N NaOH; conditions: dye in image-receiving layer 3
Description: as §1

[8] = addition of aqueous base (1 N NaOH) to methanol and acetone solutions
Description: The title compound gave yellow solutions in methanol and acetone.

[9] = decolorization of methanol solution added to aqueous 1 N KOH
[10] = 22 mgs./ft.^2, after 15 to 60 seconds
[11] = Experiment 1, pH=12 buffer, 560 nm
[12] = Experiment 2, pH=12 buffer, 560 nm
[13] = 22 mgs./ft.^2, coating stored for over 3 months
[14] = coating stored for over 3 months, bleaching time about 3 minutes

## COC1=CC(=C(c2cc(OC)c(O)c(OC)c2)c2ccccc2S(=O)(=O)N(C)C(C)=O)C=C(OC)C1=O [Example 23]
[1]
  Wavelength (λmax-nm): 640 nm
  T 1/2 (pH = 12): 158 sec.

## CC1=CC(=C(c2cc(C)c(O)c(C)c2)c2ccccc2COC(=O)COCC(=O)O)C=C(C)C1=O [Example 42]
[2]
  λmax: 424 nm
[2]; at λmax, in M-1 cm-1 (unit assumed)
  Epsilon: 22,500

## COC1=CC(=C(c2cc(OC)c(O)c(OC)c2)c2ccccc2COC(=O)COc2ccccc2)C=C(OC)C1=O [Example 41]
[1]
  Wavelength (λmax-nm): 640 nm
  T 1/2 (pH = 12): 18 sec.

## CN(Cc1ccccc1C(=C1C=CC(=O)C=C1)c1ccc(O)cc1)C(=O)OCCS(C)(=O)=O [Example 44]
[3]; after bleaching in 1N NaOH
  color after acidifying and again treating with aqueous 1N NaOH: remained colorless
[3]; aqueous 1N NaOH
  time to complete bleaching: ≤ 5 s
[4]
  time to bleach of magenta color: approximately 5 seconds

## COC1=CC(=C(c2ccc(N3CCOCC3)cc2)c2ccccc2S(=O)(=O)N(C)C(=O)OCCS(C)(=O)=O)C=C(OC)C1=O [Example 12]
[5]; 22 mgs./ft.^2
  Transmission density Before Bleaching B: .45
  Transmission density Before Bleaching G: .31
  Transmission density Before Bleaching R: .00
[5]; [10]
  Transmission density After Bleaching B: .00
  Transmission density After Bleaching G: .01
  Transmission density After Bleaching R: .02

## COCC(=O)OCc1ccccc1C(=C1C=C(OC)C(=O)C(OC)=C1)c1cc(OC)c(O)c(OC)c1 [Example 39]
[3]
  color after decolorization with 1N NaOH and lowering to pH 1: remained colorless even at pH 1
[1]
  Wavelength (λmax-nm): 640 nm
  T 1/2 (pH = 12): 44 sec.
[5]; 22 mgs./ft.^2
  Transmission density Before Bleaching B: .59
  Transmission density Before Bleaching G: .03
  Transmission density Before Bleaching R: .01
[5]; [10]
  Transmission density After Bleaching B: .01
  Transmission density After Bleaching G: .00
  Transmission density After Bleaching R: .00

## CC1=CC(=C(c2cc(C)c(O)c(C)c2)c2ccccc2S(=O)(=O)N(C)C(=O)OCCS(C)(=O)=O)C=C(C)C1=O [Example 24]
[3]
  color after decolorization with 1N NaOH and lowering to pH 1: remained colorless even at pH 1
[1]
  Wavelength (λmax-nm): 590 nm
  T 1/2 (pH = 12): 2 sec.
[5]; 22 mgs./ft.^2
  Transmission density Before Bleaching B: .40
  Transmission density Before Bleaching G: .00
  Transmission density Before Bleaching R: .00
[5]; [10]
  Transmission density After Bleaching B: .00
  Transmission density After Bleaching G: .00
  Transmission density After Bleaching R: .01

## COC1=CC(=C(c2cc(OC)c(O)c(OC)c2)c2ccccc2S(=O)(=O)N(C)C(=O)OCCS(C)(=O)=O)C=C(OC)C1=O [Example 21]
[1]
  Wavelength (λmax-nm): 640 nm
  T 1/2 (pH = 12): 2 sec.

## COC1=CC(=C(c2cc3c4c(c2)CCCN4CCC3)c2ccccc2S(=O)(=O)N(C)C(=O)OCCS(C)(=O)=O)C=C(OC)C1=O [Example 13]
[5]; 22 mgs./ft.^2
  Transmission density Before Bleaching B: .09
  Transmission density Before Bleaching G: .32
  Transmission density Before Bleaching R: .21
[5]; [10]
  Transmission density After Bleaching B: .00
  Transmission density After Bleaching G: .01
  Transmission density After Bleaching R: .01

## CN(C(=O)OCCS(C)(=O)=O)C(=O)c1ccccc1C(=C1C=CC(=O)C=C1)c1ccc(O)cc1 [Example 45]
[6]; [11]
  1st T 1/2: 10.0 s
  2nd T 1/2: 8.5 s
  Final OD: 0.02
  OD at 1.5 sec.: 2.00
[6]; [12]
  1st T 1/2: 9.5 s
  2nd T 1/2: 8.5 s
  Final OD: 0.01
  Initial OD (extrapolated): 1.15
  OD at 3.0 sec.: 0.90
[6]; acetone--pH 12 buffer
  λmax: 560 nm
[7]
  bleaching of film with aqueous 1 N NaOH: quickly bleached
[8]
  bleaching on addition of aqueous base: rapidly and irreversibly bleached to colorless

## CN(C(=O)OCCS(C)(=O)=O)S(=O)(=O)c1ccccc1C(=C1C=C(C(O)(C(F)(F)F)C(F)(F)F)C(=O)c2ccccc21)c1cc2c3c(c1)CCCN3CCC2 [Example 26]
[3]
  color after decolorization with 1N NaOH and lowering to pH 1: remained colorless even at pH 1
[9]
  decolorization (in words): decolorized substantially instantaneously
[5]; [13]
  Transmission density Before Bleaching B: .05
  Transmission density Before Bleaching G: .06
  Transmission density Before Bleaching R: .19
[5]; [14]
  Transmission density After Bleaching B: .02
  Transmission density After Bleaching G: .00
  Transmission density After Bleaching R: .02

## CC(=O)N(C)S(=O)(=O)c1ccccc1C(=C1C=C(C(O)(C(F)(F)F)C(F)(F)F)C(=O)c2ccccc21)c1cc2c3c(c1)CCCN3CCC2 [Example 9]
[9]
  decolorization time: approximately 5 seconds
